Earlier results as cited in PMC4358631 (Journal of Medicinal Chemistry, 2014).

Biological target: α3β4 nAChR (Rattus norvegicus, UniProt P04757+P12392)
Conditions: compounds bind to the central lumen of the receptor

Chain of α3β4 nAChR (P04757 26-499): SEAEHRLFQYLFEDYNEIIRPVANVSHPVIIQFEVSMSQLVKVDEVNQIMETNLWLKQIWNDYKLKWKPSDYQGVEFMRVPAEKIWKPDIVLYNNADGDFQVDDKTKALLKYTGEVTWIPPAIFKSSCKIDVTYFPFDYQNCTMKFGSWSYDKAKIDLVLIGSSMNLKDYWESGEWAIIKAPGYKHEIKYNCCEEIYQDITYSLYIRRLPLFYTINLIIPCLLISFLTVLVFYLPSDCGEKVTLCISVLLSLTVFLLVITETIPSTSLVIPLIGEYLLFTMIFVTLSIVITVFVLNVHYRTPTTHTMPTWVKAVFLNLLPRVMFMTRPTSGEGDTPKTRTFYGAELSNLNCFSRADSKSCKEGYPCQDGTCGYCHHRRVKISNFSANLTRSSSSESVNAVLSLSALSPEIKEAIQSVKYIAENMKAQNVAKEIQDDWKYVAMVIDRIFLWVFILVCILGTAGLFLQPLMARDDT
Chain of α3β4 nAChR (P12392 22-495 limits assumed): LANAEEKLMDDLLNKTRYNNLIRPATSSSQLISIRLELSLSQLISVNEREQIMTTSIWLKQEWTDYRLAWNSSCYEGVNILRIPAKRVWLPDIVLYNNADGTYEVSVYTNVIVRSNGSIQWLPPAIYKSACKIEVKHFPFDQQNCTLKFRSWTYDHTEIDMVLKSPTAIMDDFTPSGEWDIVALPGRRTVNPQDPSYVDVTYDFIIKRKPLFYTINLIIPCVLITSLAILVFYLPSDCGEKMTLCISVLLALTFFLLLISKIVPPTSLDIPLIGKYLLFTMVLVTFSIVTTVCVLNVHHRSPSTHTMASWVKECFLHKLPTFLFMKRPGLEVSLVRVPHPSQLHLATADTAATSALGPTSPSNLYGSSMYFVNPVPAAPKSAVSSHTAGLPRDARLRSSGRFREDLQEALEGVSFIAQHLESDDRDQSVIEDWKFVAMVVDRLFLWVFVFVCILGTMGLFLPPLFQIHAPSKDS

COCC[C@H]1CC2CN3CCc4c([nH]c5ccccc45)[C@](C(=O)OC)(C2)[C@H]13 [18-MC, 18-methoxycoronaridine]
inhibition of [3H]epibatidine binding: do not inhibit

CNC1(C)C2CCC(C2)C1(C)C (centres unmarked) [mecamylamine]
inhibition of [3H]epibatidine binding: do not inhibit
